US9850225B2, “Compounds useful as immunomodulators” (BRISTOL-MYERS SQUIBB COMPANY, priority 2014, dated 2017)

target: PD-1/PD-L1 interaction (PD-1-Ig / PD-L1-His) (Homo sapiens (Human), UniProt Q9NZQ7); assay: PD-1/PD-L1 Homogenous Time-Resolved Fluorescence (HTRF) binding assay; conditions: PD-1/PD-L1 HTRF binding assay; numeric value; read-out: Range or IC50
Method in brief: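 Human PD-L1-His (10 nM final) was pre-incubated with inhibitor for 15 min, then PD-1-Ig (20 nM final) was added for a further 15 min in dPBS with 0.1% BSA and 0.05% Tween-20. Binding was detected by HTRF using Eu-cryptate anti-Ig (1 nM) and APC anti-His (20 nM).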

PD-1/PD-L1 interaction (PD-1-Ig / PD-L1-His), sequence (Q9NZQ7 other isoform, or with tags, fused parts or gaps): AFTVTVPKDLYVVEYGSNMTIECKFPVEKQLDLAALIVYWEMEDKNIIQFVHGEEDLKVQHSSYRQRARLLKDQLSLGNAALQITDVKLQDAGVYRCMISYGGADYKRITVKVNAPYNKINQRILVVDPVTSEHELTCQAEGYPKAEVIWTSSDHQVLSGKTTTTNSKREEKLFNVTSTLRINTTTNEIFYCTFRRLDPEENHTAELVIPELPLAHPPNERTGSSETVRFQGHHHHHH

Which IC50 does the source give for `Cc1c(COc2cc(OCc3cncc(S(C)(=O)=O)c3)c(CO)cc2Cl)cccc1-c1ccc2c(c1)OCCO2` [Example 3013, (5-chloro-4-{[3-(2,3-dihydro-1,4-benzodioxin-6-yl)-2-methylphenyl]methoxy}-2-[(5-methanesulfonylpyridin-3-yl)methoxy]phenyl)methanol] here?
Its IC50 is 0.08 µM.

`Cc1c(COc2cc(OCc3cncc(C#N)c3)c(CN[C@H](CC(N)=O)C(=O)O)cc2Cl)cccc1-c1ccc2c(c1)OCCO2` [Example 3024, (R)-4-amino-2-((5-chloro-2-((5-cyanopyridin-3-yl)methoxy)-4-((3-(2,3-dihydrobenzo[b][1,4]dioxin-6-yl)-2-methylbenzyl)oxy)benzyl)amino)-4-oxobutanoic acid] was tested. Which IC50 did it give?
The IC50 was 0.00554 µM.

same assay, conditions: PD-1/PD-L1 HTRF binding assay; value given as range class; read-out: Range or IC50

For `Cc1c(COc2cc(OCc3cncc(C#N)c3)c(CNCC(=O)O)cc2Cl)cccc1-c1ccc2c(c1)OCCO2` [Example 2013, 2-((5-chloro-2-((5-cyanopyridin-3-yl)methoxy)-4-((3-(2,3-dihydrobenzo[b][1,4]dioxin-6-yl)-2-methylbenzyl)oxy)benzyl)amino)acetic acid], which IC50 is on record?
The IC50 was 0.0006 to 0.01 µM.

With `Cc1c(COc2cc(OCc3cncc(C#N)c3)c(CN[C@H](CO)C(=O)O)cc2F)cccc1-c1ccc2c(c1)OCCO2` [Example 3000] as the compound, how does the IC50 read?
Its IC50 is 0.0006 to 0.01 µM.

How did the IC50 turn out when `Cc1c(COc2cc(OCc3cncc(C#N)c3)c(CN[C@](C)(CO)C(=O)O)cc2F)cccc1-c1ccc2c(c1)OCCO2` [Example 3001] was run?
Its IC50 is 0.0006 to 0.01 µM.

Which IC50 does the source give for `Cc1c(COc2cc(OCc3cncc(C#N)c3)c(CN3CCCC[C@H]3C(=O)O)cc2F)cccc1-c1ccc2c(c1)OCCO2` [Example 3002] here?
Its IC50 is 0.0006 to 0.01 µM.

For `CCOC(=O)Nc1cncc(COc2cc(OCc3cccc(-c4ccc5c(c4)OCCO5)c3C)c(Cl)cc2C=O)c1` [Example 3008, ethyl (5-((4-chloro-5-((3-(2,3-dihydrobenzo[b][1,4]dioxin-6-yl)-2-methylbenzyl)oxy)-2-formylphenoxy)methyl)pyridin-3-yl)carbamate], which IC50 is on record?
The IC50 was 0.0006 to 0.01 µM.

Which IC50 does the source give for `CCOC(=O)Nc1cncc(COc2cc(OCc3cccc(-c4ccc5c(c4)OCCO5)c3C)c(Cl)cc2CN[C@@](C)(CO)C(=O)O)c1` [Example 3009, (S)-2-((5-chloro-4-((3-(2,3-dihydrobenzo[b][1,4]dioxin-6-yl)-2-methylbenzyl)oxy)-2-((5-((ethoxycarbonyl)amino)pyridin-3-yl)methoxy)benzyl)amino)-3-hydroxy-2-methylpropanoic acid] here?
Its IC50 is 0.0006 to 0.01 µM.

For `CC(=O)Nc1cc(COc2cc(OCc3cccc(-c4ccc5c(c4)OCCO5)c3C)c(Cl)cc2C=O)ccn1` [Example 3010, N-(4-((4-chloro-5-((3-(2,3-dihydrobenzo[b][1,4]dioxin-6-yl)-2-methylbenzyl)oxy)-2-formylphenoxy)methyl)pyridin-2-yl)acetamide], which IC50 is on record?
Its IC50 is 0.1 to 20 µM.

With `CC(=O)Nc1cc(COc2cc(OCc3cccc(-c4ccc5c(c4)OCCO5)c3C)c(Cl)cc2CN[C@@](C)(CO)C(=O)O)ccn1` [Example 3011, (S)-2-((2-((2-acetamidopyridin-4-yl)methoxy)-5-chloro-4-((3-(2,3-dihydrobenzo[b][1,4]dioxin-6-yl)-2-methylbenzyl)oxy)benzyl)amino)-3-hydroxy-2-methylpropanoic acid] as the compound, how does the IC50 read?
Its IC50 is 0.0006 to 0.01 µM.

How did the IC50 turn out when `Cc1c(COc2cc(OCc3cncc(S(C)(=O)=O)c3)c(CN[C@@](C)(CO)C(=O)O)cc2Cl)cccc1-c1ccc2c(c1)OCCO2` [Example 3012, (S)-2-((5-chloro-4-((3-(2,3-dihydrobenzo[b][1,4]dioxin-6-yl)-2-methylbenzyl)oxy)-2-((5-(methylsulfonyl)pyridin-3-yl)methoxy)benzyl)amino)-3-hydroxy-2-methylpropanoic acid] was run?
Its IC50 is 0.0006 to 0.01 µM.

Which IC50 does the source give for `COc1cc(COc2cc(OCc3cccc(-c4ccc5c(c4)OCCO5)c3C)c(Cl)cc2CN[C@@](C)(CO)C(=O)O)cc(Cl)n1` [Example 3014, (S)-2-((5-chloro-2-((2-chloro-6-methoxypyridin-4-yl)methoxy)-4-((3-(2,3-dihydrobenzo[b][1,4]dioxin-6-yl)-2-methylbenzyl)oxy)benzyl)amino)-3-hydroxy-2-methylpropanoic acid] here?
The IC50 was 0.0006 to 0.01 µM.

`COc1cc(COc2cc(OCc3cccc(-c4ccc5c(c4)OCCO5)c3C)c(Cl)cc2CN[C@@](C)(CO)C(=O)O)ccn1` [Example 3015, (2S)-2-{[(5-chloro-4-{[3-(2,3-dihydro-1,4-benzodioxin-6-yl)-2-methylphenyl]methoxy}-2-[(2-methoxypyridin-4-yl)methoxy]phenyl)methyl]amino}-3-hydroxy-2-methylpropanoic acid] was tested. Which IC50 did it give?
Its IC50 is 0.0006 to 0.01 µM.

For `COc1cc(COc2cc(OCc3cccc(-c4ccc5c(c4)OCCO5)c3C)c(Cl)cc2CO)ccn1` [Example 3016, (5-chloro-4-{[3-(2,3-dihydro-1,4-benzodioxin-6-yl)-2-methylphenyl]methoxy}-2-[(2-methoxypyridin-4-yl)methoxy]phenyl)methanol], which IC50 is on record?
The IC50 was 0.1 to 20 µM.

For `COc1cc(COc2cc(OCc3cccc(-c4ccc5c(c4)OCCO5)c3C)c(Cl)cc2CN2CCCC[C@H]2C(=O)O)ccn1` [Example 3017, (S)-1-(5-chloro-4-((3-(2,3-dihydrobenzo[b][1,4]dioxin-6-yl)-2-methylbenzyl)oxy)-2-((2-methoxypyridin-4-yl)methoxy)benzyl)piperidine-2-carboxylic acid], which IC50 is on record?
The IC50 was 0.01 to 0.1 µM.

How did the IC50 turn out when `Cc1c(COc2cc(OCc3ccnc(C(=O)N(C)C)c3)c(CN[C@@](C)(CO)C(=O)O)cc2Cl)cccc1-c1ccc2c(c1)OCCO2` [Example 3018, (S)-2-((5-chloro-4-((3-(2,3-dihydrobenzo[b][1,4]dioxin-6-yl)-2-methylbenzyl)oxy)-2-((2-(dimethylcarbamoyl)pyridin-4-yl)methoxy)benzyl)amino)-3-hydroxy-2-methylpropanoic acid] was run?
The IC50 was 0.0006 to 0.01 µM.

For `Cc1c(COc2cc(OCc3ccnc(C(=O)N(C)C)c3)c(CO)cc2Cl)cccc1-c1ccc2c(c1)OCCO2` [Example 3019, 4-(4-chloro-5-{[3-(2,3-dihydro-1,4-benzodioxin-6-yl)-2-methylphenyl]methoxy}-2-(hydroxymethyl)phenoxymethyl)-N,N-dimethylpyridine-2-carboxamide], which IC50 is on record?
The IC50 was 0.1 to 20 µM.

How did the IC50 turn out when `Cc1c(COc2cc(OCc3cccc(S(C)(=O)=O)c3)c(C=O)cc2Cl)cccc1-c1ccc2c(c1)OCCO2` [Example 3020, 5-chloro-4-((3-(2,3-dihydrobenzo[b][1,4]dioxin-6-yl)-2-methylbenzyl)oxy)-2-((3-(methylsulfonyl)benzyl)oxy)benzaldehyde] was run?
The IC50 was 0.1 to 20 µM.

How did the IC50 turn out when `Cc1c(COc2cc(OCc3cccc(S(C)(=O)=O)c3)c(CN[C@@](C)(CO)C(=O)O)cc2Cl)cccc1-c1ccc2c(c1)OCCO2` [Example 3021, (S)-2-((5-chloro-4-((3-(2,3-dihydrobenzo[b][1,4]dioxin-6-yl)-2-methylbenzyl)oxy)-2-((3-(methylsulfonyl)benzyl)oxy)benzyl)amino)-3-hydroxy-2-methylpropanoic acid] was run?
Its IC50 is 0.0006 to 0.01 µM.

Which IC50 does the source give for `Cc1c(COc2cc(OCc3cncc(C#N)c3)c(CN[C@@H](CC(N)=O)C(=O)O)cc2Cl)cccc1-c1ccc2c(c1)OCCO2` [Example 3022, (S)-4-amino-2-((5-chloro-2-((5-cyanopyridin-3-yl)methoxy)-4-((3-(2,3-dihydrobenzo[b][1,4]dioxin-6-yl)-2-methylbenzyl)oxy)benzyl)amino)-4-oxobutanoic acid] here?
Its IC50 is 0.0006 to 0.01 µM.

With `Cc1c(COc2cc(OCc3cncc(C#N)c3)c(CN[C@@H](CC(=O)O)C(=O)O)cc2Cl)cccc1-c1ccc2c(c1)OCCO2` [Example 3023, (S)-2-((5-chloro-2-((5-cyanopyridin-3-yl)methoxy)-4-((3-(2,3-dihydrobenzo[b][1,4]dioxin-6-yl)-2-methylbenzyl)oxy)benzyl)amino)succinic acid] as the compound, how does the IC50 read?
The IC50 was 0.0006 to 0.01 µM.

For `Cc1c(COc2cc(OCc3cncc(C#N)c3)c(CN[C@H](CC(=O)O)C(=O)O)cc2Cl)cccc1-c1ccc2c(c1)OCCO2` [Example 3025, (R)-2-((5-chloro-2-((5-cyanopyridin-3-yl)methoxy)-4-((3-(2,3-dihydrobenzo[b][1,4]dioxin-6-yl)-2-methylbenzyl)oxy)benzyl)amino)succinic acid], which IC50 is on record?
The IC50 was 0.0006 to 0.01 µM.

How did the IC50 turn out when `COC(=O)c1ccc(OC)c(COc2cc(OCc3cccc(-c4ccc5c(c4)OCCO5)c3C)c(Cl)cc2CN2CCCC[C@H]2C(=O)O)c1` [Example 3026, (S)-1-(5-chloro-4-((3-(2,3-dihydrobenzo[b][1,4]dioxin-6-yl)-2-methylbenzyl)oxy)-2-((2-methoxy-5-(methoxycarbonyl)benzyl)oxy)benzyl)piperidine-2-carboxylic acid] was run?
The IC50 was 0.1 to 20 µM.

How did the IC50 turn out when `COc1ccc(C(=O)O)cc1COc1cc(OCc2cccc(-c3ccc4c(c3)OCCO4)c2C)c(Cl)cc1CN1CCCC[C@H]1C(=O)O` [Example 3027, (S)-1-(2-((5-carboxy-2-methoxybenzyl)oxy)-5-chloro-4-((3-(2,3-dihydrobenzo[b][1,4]dioxin-6-yl)-2-methylbenzyl)oxy)benzyl)piperidine-2-carboxylic acid] was run?
Its IC50 is 0.1 to 20 µM.

For `Cc1c(COc2cc(OCc3ccccc3)c(CN3CCCC[C@H]3C(=O)O)cc2Cl)cccc1-c1ccc2c(c1)OCCO2` [Example 3028, (S)-1-(2-(benzyloxy)-5-chloro-4-((3-(2,3-dihydrobenzo[b][1,4]dioxin-6-yl)-2-methylbenzyl)oxy)benzyl)piperidine-2-carboxylic acid], which IC50 is on record?
Its IC50 is 0.1 to 20 µM.

Which IC50 does the source give for `Cc1c(COc2cc(OCC(N)=O)c(CN[C@@H](CO)C(=O)O)cc2Cl)cccc1-c1ccc2c(c1)OCCO2` [Example 3030, (S)-2-((2-(2-amino-2-oxoethoxy)-5-chloro-4-((3-(2,3-dihydrobenzo[b][1,4]dioxin-6-yl)-2-methylbenzyl)oxy)benzyl)amino)-3-hydroxypropanoic acid] here?
The IC50 was 0.0006 to 0.01 µM.

same assay, conditions: PD-1/PD-L1 HTRF binding assay; μM; read-out: Range or IC50

How did the IC50 turn out when `COc1ccccc1COc1cc(OCc2cccc(-c3ccc4c(c3)OCCO4)c2C)c(Cl)cc1CN1CCCC[C@H]1C(=O)O` [Example 3029, (S)-1-(5-chloro-4-((3-(2,3-dihydrobenzo[b][1,4]dioxin-6-yl)-2-methylbenzyl)oxy)-2-((2-methoxybenzyl)oxy)benzyl)piperidine-2-carboxylic acid] was run?
Its IC50 is 2.35 µM.
